Data on eleven compounds can be found in US20130011495A1, “ANTIFUNGAL COMPOUNDS AND USE THEREOF” (priority 2009, published 2013).

“Also recorded” adds a separate entry of the source. Read-outs that look alike come from different tables or passages of the source.

The subject of one data set is esca. Conditions: 18.5 g/L injected into the trunk; cited from earlier work.
The subject of data set [1] is Phaeomoniella chlamydospora. Description: Mycelial growth on solid medium. The settings on record: for inhibition of growth, dose dependence: 5, 10 and 20 mM (whatever concentration); for inhibition of growth, dose dependence / inhibition of growth: FIG. 5 A; for inhibition of fungal development: FIG. 6 A.
The subject of data set [2] is Phaeoacremonium aleophilum. Description: Mycelial growth on solid medium. The settings on record: for inhibition of development, dose dependence: 5, 10 and 20 mM.
For the next data set, the system named is Inonotus obliquus. The settings on record: concentrations of 0.9 and 9 mM; cited from earlier work.
For a further data set, the system named is leaves. Kind of data set: Tests of phytotoxicity (upper limits of amounts). In kind it is in vivo.
For data set [3] the following is noted: in vivo; cited from earlier work.
For a further data set, the system named is Eutypa lata. The settings on record: pH 4.1; cited from earlier work.
The conditions of data set [4]: cited from earlier work.
The mark [5] stands for this setting: sulfate 40 mM in BNM, solid medium pH 4.2, 18 days.
The mark [6] stands for this setting: sulfate 40 mM in BNM, solid medium pH 4.2, 12 days.
Setting [7] is: 40 mM, used as the only nitrogen source (results not shown).
Setting [8] is: Phaeomoniella chlamydospora, 432 h, pH 4.2, read-out: inhibition of growth.
Setting [9] is: Phaeoacremonium minimum, 288 h, pH 4.2, read-out: inhibition of growth.
The mark [10] stands for this setting: Phaeomoniella chlamydospora, 432 h, pH 4.2, read-out: inhibition of mycelial development.
Setting [11] is: ferrous salt 5 mM, solid medium pH 4.2, 18 days.
The mark [12] stands for this setting: ferrous salt 10 mM, solid medium pH 4.2, 18 days.
[13] abbreviates: ferrous salt 10 mM, FIG. 5 B, solid medium pH 4.2, 12 days.
[14] abbreviates: ferrous salt 20 mM, FIG. 5 B, solid medium pH 4.2, 12 days.
Where [15] appears, read: 14C-labeled SA at 10 μM, after 4 hours of absorption.

Procedure for leaves: According to the invention, the upper limits of amounts of the different products were determined in tests of phytotoxicity. First symptoms appear on the leaves at these amounts. […] These amounts can be slightly different or even greater depending on the sensitivity of the plant.

As to `O=C([O-])c1ccccc1O.[K+]`, the efficacy on esca in the data set with esca is recorded as 45.4%.

On to `O=S(=O)([O-])[O-].[Cu+2]` [CuSO4, copper sulfate], for which the inhibition in data set [1] (setting [5]) was 100% inhibition; in data set [1] (sulfate 40 mM in BNM, solid medium pH 4.2, 18 days, listed as copper sulfate), “completely inhibit”; in data set [2] (setting [6]), 100% inhibition; in data set [2] (sulfate 40 mM in BNM, solid medium pH 4.2, 12 days, listed as copper sulfate), “completely inhibit”.

As for `O=S(=O)([O-])[O-].[K+].[K+]` [K2SO4, potassium sulfate], the inhibition entry in data set [1] (setting [5]) and in data set [2] (setting [6]) was “— (—: no inhibition)” in each case.

Turning to `O=S(=O)([O-])[O-].[Mg+2]` [MgSO4, magnesium sulfate], the inhibition entry in data set [1] (setting [5]) and in data set [2] (setting [6]) was “— (—: no inhibition)” throughout.

As for `N.N.O=S(=O)(O)O` [ammonium sulfate], the growth entry in data set [1] (setting [7]) and in data set [2] (setting [7]) was “slows the growth” each time. Also, the inhibition result in data set [1] (setting [5]) and in data set [2] (setting [6]) was “— (—: no inhibition)” each time.

In the case of `N[C@@H](CS)C(=O)O` [cysteine, L-cysteine], the inhibition of development result in the data set on Inonotus obliquus is “inhibits the development”. In data set [1] (setting [8]), the inhibition at 500 µM came to 0%, the inhibition at 1000 µM amounted to 13%, the inhibition at 5000 µM stood at 34% and the inhibition at 10000 µM is 80%. Besides, in data set [2] (setting [9]), the inhibition at 500 µM is 11%, the inhibition at 1000 µM amounted to 18%, the inhibition at 5000 µM is 24% and the inhibition at 10000 µM was determined as 37%.

The term inhibition of growth denotes the relative decrease from the control value, in per cent. Take `CCO[PH](=O)O` [fosetyl-aluminum, aluminum tris-O-ethylphosphonate]: the “upper limit of amount determined in tests of phytotoxicity (first symptoms appear on the leaves)” value with leaves (in vivo) was determined as 81 mM. Moreover, in data set [3], the “pH of maximum absorption” value is 5.0 and the “time of detection in the phloem exudate after application” value is on record as 30 min. In addition, in data set [1] (setting [10]), the inhibition at 1000 µM came to 6%, the inhibition at 1700 µM was 14%, the inhibition at 2700 µM was 46% and the inhibition at 3400 µM was determined as 86%. In addition, in data set [1] (fosetyl-aluminum 0.3 mM, FIG. 7 A, solid medium pH 4.2, 18 days), the “inhibition of mycelial development” value is listed as “no effect”. In addition, in data set [2] (setting [9]), the inhibition at 1700 µM is ~6%, the inhibition at 2700 µM was found to be 30% and the inhibition at 3400 µM worked out at 45%. Further, the inhibition of growth result in data set [2] (fosetyl-aluminum 0.3 mM, FIG. 7 B, solid medium pH 4.2, 12 days) is listed as “no effect”. Further, the inhibition of growth entry in data set [2] (fosetyl-aluminum 1 mM, FIG. 7 B, solid medium pH 4.2, 12 days) is “no effect”.

Regarding `CC(=O)[O-].CC(=O)[O-].[Fe+2]` [iron acetate], the “inhibition of growth, dose dependence” value in data set [1] is “dose-dependent inhibition”. The inhibition of growth is 40% in data set [1] (setting [11]), “completely inhibited” in data set [1] (setting [12]), 45% in data set [2] (setting [13]) and “completely inhibited” in data set [2] (setting [14]). Moreover, the “inhibition of development, dose dependence” value in data set [2] (FIG. 5 B) was “dose-dependent inhibition”.

With `O.O.O.O.O.O.O.O=S(=O)([O-])[O-].[Fe+2]` [iron sulfate], in the data set on leaves (concentration in the composition), the “upper limit of amount determined in tests of phytotoxicity (first symptoms appear on the leaves)” value is given as 160 mM. For the same compound, in data set [1], the “inhibition of growth, dose dependence” value is listed as “dose-dependent inhibition”. The inhibition in data set [1] (FeSO4 1 mM in BNM, solid medium pH 4.2, 18 days) is reported as 4% inhibition; in data set [1] (FeSO4 2.5 mM in BNM, solid medium pH 4.2, 18 days), 21% inhibition; in data set [1] (FeSO4 5 mM in BNM, solid medium pH 4.2, 18 days) it was 64% inhibition; in data set [1] (FeSO4 10 mM in BNM, solid medium pH 4.2, 18 days), 95% inhibition; in data set [1] (setting [5]), “completely inhibit”; in data set [1] (sulfate 40 mM in BNM, solid medium pH 4.2, 18 days, listed as FeSO4), 100% inhibition. In addition, the inhibition was 15% inhibition in data set [2] (FeSO4 1 mM in BNM, solid medium pH 4.2, 12 days); 23.5% inhibition in data set [2] (FeSO4 2.5 mM in BNM, solid medium pH 4.2, 12 days); 33% inhibition in data set [2] (FeSO4 5 mM in BNM, solid medium pH 4.2, 12 days); 85% inhibition in data set [2] (FeSO4 10 mM in BNM, solid medium pH 4.2, 12 days); “completely inhibit” in data set [2] (setting [6]); 100% inhibition in data set [2] (sulfate 40 mM in BNM, solid medium pH 4.2, 12 days, listed as FeSO4). The inhibition of growth in data set [1] (setting [11]) was 65%; in data set [1] (setting [12]), “not the case”; in data set [2] (ferrous salt 5 mM, FIG. 5 B, solid medium pH 4.2, 12 days), “more inhibited with iron sulfate than with iron chloride and acetate”; in data set [2] (setting [13]) it was 75%; in data set [2] (setting [14]), “slight development”. The “inhibition of development, dose dependence” value in data set [2] (FIG. 5 B) is given as “dose-dependent inhibition”.

For the compound `O=C(O)c1ccccc1O` [salicylic acid, 2-hydroxybenzoic acid], in the data set with Eutypa lata, the “threshold value of antifungal action” value is ~0.1 mM. In data set [4] (setting [15]), the “concentration detected in phloem sap” value was 100 µM and the “concentration detected in xylem sap” value is 0.67 µM. The “concentration factor in the phloem” value in data set [4] (pH between 4.6 and 5.0) is listed as ~10. Also, in data set [1] (setting [8]), the inhibition at 500 µM was determined as 10% and the inhibition at 1000 µM was determined as 28%. Moreover, in data set [1] (salicylic acid 0.05 mM, solid medium pH 4.2, 18 days), the “inhibition of fungal development” value is “does not inhibit”. Moreover, the “inhibition of fungal development” value in data set [1] (salicylic acid 0.1 mM, solid medium pH 4.2, 18 days) is recorded as “does not inhibit”. Also, the inhibition at 500 µM in data set [2] (setting [9]) came out at 50%. In data set [2] (salicylic acid 0.05 mM, FIG. 6 B, solid medium pH 4.2, 12 days), the inhibition of development entry is “slightly inhibited”. Besides, the inhibition of growth entry in data set [2] (salicylic acid 1 mM, FIG. 6 B, solid medium pH 4.2, 12 days) is “inhibited completely”.

For iron chloride, in data set [1], the “inhibition of growth, dose dependence” value is listed as “dose-dependent inhibition; also recorded: comparable to that obtained with iron sulfate”. The inhibition of growth entry in data set [1] (setting [12]) was “not the case”; in data set [2] (setting [13]), 75%; in data set [2] (setting [14]) it was “completely inhibited”. In addition, in data set [2] (FIG. 5 B), the “inhibition of development, dose dependence” value is given as “dose-dependent inhibition”.
